Biological target: VPS29-VPS35 heterodimer (Homo sapiens, UniProt Q96QK1+Q9UBQ0)
Assay: STD-NMR and WaterLogsy-NMR ligand-based binding experiments
Settings: 2a 500 μM, VPS29-VPS35 10 μM
Procedure: We used a ligand-based NMR approach to localize the binding between compound 2a and the VPS29-VPS35 heterodimer. These techniques provide binding information without requiring any isotopic labeling of the proteins. Particularly, Saturation Transfer Difference NMR (STD-NMR)[32] and WaterLogsy-NMR (WL-NMR)[33] experiments were acquired in buffer solutions containing a large excess of compound 2a (500μM) with respect to VPS29-VPS35 (10 μM). Both STD-NMR and WL-NMR focus on the NMR signals of the ligand and utilize the magnetization transfer by the Nuclear Overhauser Effect (NOE) between protein and ligand. STD-NMR experiments are carried out by subtraction of a 1D ^1H spectrum where the protein protons are selectively irradiated (on-resonance spectrum) from a spectrum in which the protein is not saturated (off-resonance spectrum).
WL-NMR entails magnetization transfer to the ligand from either bulk water via a macromolecule, and/or the exchangeable protons and the water molecules present in the binding site. Positive peaks for proton resonances of the ligand in the WL-NMR spectrum are observed for binders in presence of the protein. […] As negative control, STD-NMR and WL-NMR experiments were performed for compound 2a in absence of the heterodimer. The absence of proton signals in the aromatic zone and the presence of negative signals in STD-NMR (Fig. 2k) and WL-NMR (Fig. 2l) spectra, respectively, confirms the binding between compound 2a and the VPS29-VPS35 heterodimer. Unfortunately, STD- and WL-NMR competition experiments between 2a and R55/1 could not be performed since the latter compound was not stable in our experimental conditions.
NMR spectra were acquired at 298K on a Bruker Avance NEO 700 MHz spectrometer equipped with a Z-gradient cryoprobe. The spectra were processed with the Bruker TOPSPIN 4.0.5 software packages. […] 1D ^1H spectra were recorded using a 1 s presaturation pulse with a B1 power of 200 Hz. […]

**Q.** Which STD-NMR binding does the source give for `NC(N)=N/N=C/c1cccc(/C=N/N=C(N)N)c1` [compound 2a, phenyl-1,3-bis-guanylhydrazone] here?
**A.** The STD-NMR binding was “interaction between the ligand and the protein complex”.

**Q.** What about the WL-NMR binding of the same molecule?
**A.** Its WL-NMR binding is “binds to the protein complex”.
